Converted amounts (≈) assume the structure as drawn. Like-named read-outs stand apart in the source and are kept apart here.
Key:
[1] = Crystal morphology and structure of carbamazepine from HPMC solutions (SEM, X-ray diffraction); format: physicochemical; conditions: for X-ray diffraction: crystal form of carbamazepine: 1 day
Procedure: (§1) Analysis of carbamazepine in HPMC solutions and in dry mixtures of HPMC was performed. Suspension of carbamazepine (5% w/v) containing 1% SDS aqueous solution with Methocel K4M at different concentrations, namely 0.5, 1, 2, 5 and 10 mg,/ml were shaken for 1-7 days at 37° C. with stirring (50 rpm). Samples from the sediment were taken, at various time intervals, dried at room temperature for 2 days and analyzed by DSC, X-ray powder diffraction and SEM.
(§2) X-ray powder diffraction of the samples was recorded by Philips automated diffractometer using Cu-K α radiation (40 kV, 35 mA) at a scanning rate of 0.5° per 20 min^-1.
Samples of hydrated tablets were sliced across the gel layer. The samples were washed and then treated with increasing concentration of ethanol, 5 minutes at each concentration, for dehydration. In order to complete the dehydration the samples were transferred in solution of freon 113:ethanol with increasing concentrations of freon (25, 50, 75, 100%). The samples with 100% freon were incubated in the hood for 0.5 hour. The cross-sectioned tablets were mounted on stubs and coated with a polaron sputter coater, Model E5100. The film thickness obtained was approximately 75 Å. Scanning electron photomicrographs were recorded using a Philips 505 SEM, applying voltage of […]. Samples of powders were coated and analyzed under the same conditions described for the hydrated tablets.

[2] = Crystal morphology and structure of carbamazepine in the gel layer of hydrated tablets (DSC, X-ray, SEM); format: physicochemical; conditions: for SEM: form of carbamazepine in the gel layer: 50% Methocel K4M
Procedure: Gel layers of the tablets were analyzed. Tablets were hydrated using the USP Basket Method I under the same conditions described in the dissolution studies. At various time intervals the tablets were removed from the baskets, the gel layer was scratched and dried at room temperature for at least 24 hours. The gel layer was analyzed by DSC, X-ray powder diffraction and scanning electron microscopy (SEM). Used analytical methods are described in Example 4.
Tablets containing 50% carbamazepine and 50% Methocel K4M were prepared and hydrated in medium containing 1% SDS in water, using tablet dissolution tester at the same conditions used for measurements of the release rate of the drug.
At various time intervals the tablets were removed and the gel layer was peeled, dried at room temperature and analyzed by DSC, X-ray and SEM. For comparison, a suspension containing carbamazepine in 1% SDS water solution was prepared and the crystals obtained were analyzed by DSC, X-ray and SEM.
(§3) The thermal analysis of the samples was performed using a Differential Scanning Calorimeter (DSC, Mettler TA4000 with measuring cell DSC 30E, Switzerland). Samples were measured into aluminum pans. Lids were crimped and holes were made in lids in order to allow dehydration of samples. The thermal behavior of the samples was studied under nitrogen purge at heating rates of 10° C. min^-1 over a temperature range of 0° C. to 250° C. When the glass transition temperature of HPMC was examined the heating rate was 0.5° C. min^-1.
as §2
Samples of hydrated tablets were sliced across the gel layer. The samples were washed and then treated with increasing concentration of ethanol, 5 minutes at each concentration, for dehydration. […] Scanning electron photomicrographs were recorded using a Philips 505 SEM, applying voltage of […]. Samples of powders were coated and analyzed under the same conditions described for the hydrated tablets.

[3] = Solubility of carbamazepine in medium; format: physicochemical; conditions: read-out: Drug solubility
Excerpt: Results are seen in FIG. 12.

[4] = after 1 hour, in the presence of water; cited from earlier work
[5] = anhydrous carbamazepine; cited from earlier work
[6] = Degree of conversion of anhydrous carbamazepine to carbamazepine dihydrate in suspension (DSC); format: physicochemical
Procedure: Suspensions of carbamazepine (5% w/v) containing water or 1% SDS aqueous solution were shaken at 37° C. with stirring (50 rpm). Samples from the sediment were taken after 1 day, dried at room temperature for 2 days, and analyzed by differential scanning calorimetry, X-ray powder diffraction and scanning electron microscopy (SEM). Carbamazepine anhydrous powder was analyzed using the same methods.
as §1
The degree of conversion of anhydrous carbamazepine to the dihydrate form, measured by DSC, was calculated according to the ratio obtained from the dehydration enthalpies of carbamazepine suspended in 1% SDS aqueous Methocel solution and 1% SDS aqueous solution without Methocel. Dry mixtures containing different ratios of HPMC (Methocel K4M) and carbamazepine were also analyzed by DSC in order to investigate the influence of HPMC on the polymorphic transformation of carbamazepine.
as §3

## NC(=O)N1c2ccccc2C=Cc2ccccc21 [carbamazepine]
[1]; 1 mg/ml Methocel K4M solution
  X-ray diffraction: crystal form of carbamazepine: mixture of carbamazepine and carbamazepine dihydrate crystals
[1]; 10 mg/ml Methocel K4M solution
  X-ray diffraction: crystal form of carbamazepine: solely the anhydrous form
[1]; 1, 5 or 10 mg/ml HPMC, 1 and 7 days
  SEM: appearance of carbamazepine crystals from HPMC solutions: appear to be amorphous
[2]; 6 hours of hydration
  SEM: form of carbamazepine in the gel layer: transformed to an amorphous form
[2]; 20 hours hydration
  SEM: form of carbamazepine in the gel layer: showed the same behavior
[2]; hydrated tablets containing 50% polymer, 6 and 20 hours
  Transformation of carbamazepine to the dihydrate form in the gel layer: inhibited
[3]; 0.5% sds in water
  solubility: 1470 µg/mL (≈ 6.21 mM)
[3]; 1% sds in water
  solubility: 3300 µg/mL (≈ 14 mM)
[4]
  Conversion to carbamazepine dihydrate complete: 95%
[5]
  Solubility in water: practically insoluble in water
[6]; 5 mg/ml Methocel K4M, time 1 day
  Degree of conversion of carbamazepine to carbamazepine dihydrate: 0%
[6]; 5 mg/ml Methocel K4M, time 2 days
  Degree of conversion of carbamazepine to carbamazepine dihydrate: 0.97%
[6]; 5 mg/ml Methocel K4M, time 3 days
  Degree of conversion of carbamazepine to carbamazepine dihydrate: 8.8%
[6]; 5 mg/ml Methocel K4M, time 4 days
  Degree of conversion of carbamazepine to carbamazepine dihydrate: 21.5%
[6]; 5 mg/ml Methocel K4M, time 7 days
  Degree of conversion of carbamazepine to carbamazepine dihydrate: 100%
[6]; Methocel K4M 0 mg/ml, 24 hours, 1% SDS, 37° C.
  Degree of conversion of carbamazepine to carbamazepine dihydrate: 100%
[6]; Methocel K4M 0.5 mg/ml, 24 hours, 1% SDS, 37° C.
  Degree of conversion of carbamazepine to carbamazepine dihydrate: 77.0%
[6]; Methocel K4M 1 mg/ml, 24 hours, 1% SDS, 37° C.
  Degree of conversion of carbamazepine to carbamazepine dihydrate: 23.1%
[6]; Methocel K4M 2 mg/ml, 24 hours, 1% SDS, 37° C.
  Degree of conversion of carbamazepine to carbamazepine dihydrate: 0%
[6]; Methocel K4M 5 mg/ml, 24 hours, 1% SDS, 37° C.
  Degree of conversion of carbamazepine to carbamazepine dihydrate: 0%
[6]; Methocel K4M 10 mg/ml, 24 hours, 1% SDS, 37° C.
  Degree of conversion of carbamazepine to carbamazepine dihydrate: 0%
[6]; after 7 days, all examined Methocel K4M concentrations
  Transformation of carbamazepine to dihydrate: transformed completely to dihydrate
[6]; suspended in water, without HPMC
  Conversion of anhydrous carbamazepine to dihydrate (DSC thermograms): completely converted to dihydrate

Reference: patent US6296873A, “Zero-order sustained release delivery system for carbamazephine derivatives” (Yissum Research Development Company of the Hebrew …, priority 2000, dated 2001)
